Assay results as given in US20040024024A1, “Aromatic sulfone hydroxamates and their use as protease inhibitors” (priority 2001, published 2004).

Legend:
Human recombinant MMP-14 = target: T1, Human recombinant MMP-14 (Homo sapiens, UniProt P50281); test: In vitro MMP inhibition, Ki determination (fluorogenic substrate II); assay type: biochemical
T1 construct: The catalytic domain enzyme was expressed in E. coli inclusion bodies, solubilized in urea; made in house
Summary of the method: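 Refolded E. coli-expressed MMP-14 catalytic domain, APMA- or trypsin-activated, incubated 1 h at room temperature with 4 μM fluorogenic substrate II in pH 7.5 Tris/NaCl/CaCl2 buffer; fluorescence read at 330/420 nm. Ki from Morrison-equation non-linear regression, substrate at or below Km, uncorrected for substrate.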

Human recombinant MMP-2 = target: T2, Human recombinant MMP-2 (Homo sapiens, UniProt P08253); test: as above; assay type: biochemical
T2 construct: made in house; host or cells: MMP-2-transfected p2AHT2 cells
T2 sequence (P08253 110-660): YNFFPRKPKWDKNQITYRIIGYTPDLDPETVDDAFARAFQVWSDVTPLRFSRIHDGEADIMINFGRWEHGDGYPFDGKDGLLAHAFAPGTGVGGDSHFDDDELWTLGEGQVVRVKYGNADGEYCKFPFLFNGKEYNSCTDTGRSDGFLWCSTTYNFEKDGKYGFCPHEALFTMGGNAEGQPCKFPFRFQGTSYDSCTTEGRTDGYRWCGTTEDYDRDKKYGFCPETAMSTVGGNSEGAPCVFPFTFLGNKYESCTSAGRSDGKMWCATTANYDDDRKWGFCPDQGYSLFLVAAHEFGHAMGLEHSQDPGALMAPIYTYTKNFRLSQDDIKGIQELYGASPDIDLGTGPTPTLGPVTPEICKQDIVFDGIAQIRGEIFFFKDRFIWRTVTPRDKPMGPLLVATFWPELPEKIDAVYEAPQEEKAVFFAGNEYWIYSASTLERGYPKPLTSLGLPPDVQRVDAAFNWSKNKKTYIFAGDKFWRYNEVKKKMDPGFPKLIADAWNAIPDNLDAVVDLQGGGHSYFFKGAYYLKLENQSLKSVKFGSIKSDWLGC

CCCCC(=O)CCCOc1ccc(S(=O)(=O)C2(C(=O)NO)CCOCC2)cc1 [Example 506]
Ki (Human recombinant MMP-14; value in parentheses): 0.681 µM | Ki (Human recombinant MMP-2; value in parentheses): 0.00192 µM

CN1CCC(C(=O)NO)(S(=O)(=O)c2ccc(SCCNC(=O)c3cc4ccccc4o3)cc2)CC1 [Example 536]
Ki (Human recombinant MMP-14; value in parentheses): > 10 µM | Ki (Human recombinant MMP-2; value in parentheses): 0.744 µM

O=C(NO)C1(S(=O)(=O)c2ccc(OCCCOCc3ccncc3)cc2)CCOCC1 [Example 555]
Ki (Human recombinant MMP-14; value in parentheses): 0.689 µM | Ki (Human recombinant MMP-2; value in parentheses): 0.00338 µM

O=C(NO)C1(S(=O)(=O)c2ccc(OCCCc3cccc(-c4ccc(Cl)cc4Cl)c3)cc2)CCOCC1 [Example 171]
Ki (Human recombinant MMP-14; value in parenthesis): > 10 µM | Ki (Human recombinant MMP-2; value in parenthesis): 3.19 µM

COCCN1CCC(C(=O)NO)(S(=O)(=O)c2ccc(OCCc3cccc(-c4ccccn4)c3)cc2)CC1 [Example 548]
Ki (Human recombinant MMP-14; value in parentheses): 7.42 µM | Ki (Human recombinant MMP-2; value in parentheses): 0.00158 µM

O=C(NO)C1(S(=O)(=O)c2ccc(OCCOc3cncnc3)cc2)CCOCC1 [Example 554]
Ki (Human recombinant MMP-14; value in parentheses): > 10 µM | Ki (Human recombinant MMP-2; value in parentheses): 0.0613 µM
